# Tests used:
# Test in all cases: KINOMEscan competition binding
# TEK (human) = TEK (human) (UniProt Q02763)
# NLK (human) = NLK (human) (UniProt Q9UBE8)
# RPS6KA6 KD2 (human) = RPS6KA6 KD2 (human) (UniProt Q9UK32)
# PAK2 (human) = PAK2 (human) (UniProt Q13177)
# PRKD3 (human) = PRKD3 (human) (UniProt O94806)
# TESK1 (human) = TESK1 (human) (UniProt Q15569)
# CDC42BPG (human) = CDC42BPG (human) (UniProt Q6DT37)
# RIPK1 (human) = RIPK1 (human) (UniProt Q13546)
# [1] = target: ABL1 (human), P00519 [Y253F]
# EPHB3 (human) = EPHB3 (human) (UniProt P54753)
# TNNI3K (human) = TNNI3K (human) (UniProt Q59H18)
# HCK (human) = HCK (human) (UniProt P08631)
# [2] = target: ABL1 (human), P00519 [M351T]
# MKNK1 (human) = MKNK1 (human) (UniProt Q9BUB5)
# CDK17 (human) = CDK17 (human) (UniProt Q00537)
# MAP4K2 (human) = MAP4K2 (human) (UniProt Q12851)
# MAPK14 (human) = MAPK14 (human) (UniProt Q16539)
# CSF1R (human) = CSF1R (human) (UniProt P07333)
# PIM2 (human) = PIM2 (human) (UniProt Q9P1W9)
# RIOK2 (human) = RIOK2 (human) (UniProt Q9BVS4)
# PRKD1 (human) = PRKD1 (human) (UniProt Q15139)
# MAP3K9 (human) = MAP3K9 (human) (UniProt P80192)
# TNK1 (human) = TNK1 (human) (UniProt Q13470)
# PIK3CG (human) = PIK3CG (human) (UniProt P48736)
# ABL1 (human) = ABL1 (human) (UniProt P00519)
# CDKL2 (human) = CDKL2 (human) (UniProt Q92772)
# SRMS (human) = SRMS (human) (UniProt Q9H3Y6)
# ERN1 (human) = ERN1 (human) (UniProt O75460)
# STK10 (human) = STK10 (human) (UniProt O94804)
# EPHA3 (human) = EPHA3 (human) (UniProt P29320)
# PTK6 (human) = PTK6 (human) (UniProt Q13882)
# ALK (human) = ALK (human) (UniProt Q9UM73)
# STK25 (human) = STK25 (human) (UniProt O00506)
# FLT3 (human) = FLT3 (human) (UniProt P36888)
# CDKL5 (human) = CDKL5 (human) (UniProt O76039)
# DYRK1A (human) = DYRK1A (human) (UniProt Q13627)
# BMP2K (human) = BMP2K (human) (UniProt Q9NSY1)
# AKT2 (human) = AKT2 (human) (UniProt P31751)
# [3] = target: FGFR3 (human), P22607 [G697C]
# BMX (human) = BMX (human) (UniProt P51813)
# [4] = target: PIK3CA (human), P42336 [H1047Y]
# EPHA3 (human), sequence (P29320 whole entry, looked up): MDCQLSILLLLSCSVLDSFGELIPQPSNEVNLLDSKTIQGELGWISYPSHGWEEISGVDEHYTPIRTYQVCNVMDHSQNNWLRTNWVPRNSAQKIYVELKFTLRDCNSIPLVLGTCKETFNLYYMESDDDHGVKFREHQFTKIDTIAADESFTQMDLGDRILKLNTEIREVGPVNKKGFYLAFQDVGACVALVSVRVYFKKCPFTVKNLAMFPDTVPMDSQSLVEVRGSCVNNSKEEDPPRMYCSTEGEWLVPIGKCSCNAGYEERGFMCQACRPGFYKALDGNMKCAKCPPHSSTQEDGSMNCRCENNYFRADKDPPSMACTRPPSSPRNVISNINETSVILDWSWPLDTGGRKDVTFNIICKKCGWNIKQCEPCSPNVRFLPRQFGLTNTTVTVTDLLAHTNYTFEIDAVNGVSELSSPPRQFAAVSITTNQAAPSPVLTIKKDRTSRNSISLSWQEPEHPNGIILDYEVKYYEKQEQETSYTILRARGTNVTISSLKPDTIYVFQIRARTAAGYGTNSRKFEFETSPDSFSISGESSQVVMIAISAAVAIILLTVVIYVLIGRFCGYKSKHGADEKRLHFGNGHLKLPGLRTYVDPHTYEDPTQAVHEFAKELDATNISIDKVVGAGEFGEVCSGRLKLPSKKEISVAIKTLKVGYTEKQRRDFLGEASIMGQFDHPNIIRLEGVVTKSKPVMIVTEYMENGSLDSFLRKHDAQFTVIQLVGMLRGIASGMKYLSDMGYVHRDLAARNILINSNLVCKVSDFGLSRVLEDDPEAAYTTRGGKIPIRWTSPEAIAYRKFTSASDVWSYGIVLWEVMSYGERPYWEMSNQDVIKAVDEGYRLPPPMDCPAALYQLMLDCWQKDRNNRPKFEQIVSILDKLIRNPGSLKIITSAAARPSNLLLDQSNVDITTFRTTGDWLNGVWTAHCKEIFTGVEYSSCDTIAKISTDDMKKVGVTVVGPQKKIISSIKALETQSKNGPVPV
# AKT2 (human), sequence (P31751 whole entry, looked up): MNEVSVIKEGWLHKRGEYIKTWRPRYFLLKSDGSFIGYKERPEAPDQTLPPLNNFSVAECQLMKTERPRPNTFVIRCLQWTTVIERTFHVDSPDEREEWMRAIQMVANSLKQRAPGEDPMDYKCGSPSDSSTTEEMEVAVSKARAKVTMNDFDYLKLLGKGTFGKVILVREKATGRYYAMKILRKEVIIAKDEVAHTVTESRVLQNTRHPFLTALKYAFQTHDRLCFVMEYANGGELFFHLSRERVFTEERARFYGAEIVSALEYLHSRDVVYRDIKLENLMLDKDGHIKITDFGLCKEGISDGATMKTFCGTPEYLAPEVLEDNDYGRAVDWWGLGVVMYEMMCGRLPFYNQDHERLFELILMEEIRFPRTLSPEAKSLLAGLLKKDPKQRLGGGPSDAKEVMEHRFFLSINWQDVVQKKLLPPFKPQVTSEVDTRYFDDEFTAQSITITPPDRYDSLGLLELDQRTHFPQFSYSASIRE
# CDKL2 (human), sequence (Q92772 whole entry, looked up): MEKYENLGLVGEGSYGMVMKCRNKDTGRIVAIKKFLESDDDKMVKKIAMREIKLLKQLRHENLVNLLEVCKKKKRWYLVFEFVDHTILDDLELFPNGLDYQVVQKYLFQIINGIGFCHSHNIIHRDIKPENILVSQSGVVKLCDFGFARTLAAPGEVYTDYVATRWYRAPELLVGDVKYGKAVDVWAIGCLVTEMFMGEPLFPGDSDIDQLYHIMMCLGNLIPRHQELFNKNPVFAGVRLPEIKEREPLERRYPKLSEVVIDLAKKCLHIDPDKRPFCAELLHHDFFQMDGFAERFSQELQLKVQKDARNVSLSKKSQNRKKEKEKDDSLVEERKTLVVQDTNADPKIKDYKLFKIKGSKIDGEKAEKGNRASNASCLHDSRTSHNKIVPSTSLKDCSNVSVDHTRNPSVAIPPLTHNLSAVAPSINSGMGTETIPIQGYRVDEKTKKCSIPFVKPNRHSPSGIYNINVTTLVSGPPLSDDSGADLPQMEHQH
# TNK1 (human), sequence (Q13470 whole entry, looked up): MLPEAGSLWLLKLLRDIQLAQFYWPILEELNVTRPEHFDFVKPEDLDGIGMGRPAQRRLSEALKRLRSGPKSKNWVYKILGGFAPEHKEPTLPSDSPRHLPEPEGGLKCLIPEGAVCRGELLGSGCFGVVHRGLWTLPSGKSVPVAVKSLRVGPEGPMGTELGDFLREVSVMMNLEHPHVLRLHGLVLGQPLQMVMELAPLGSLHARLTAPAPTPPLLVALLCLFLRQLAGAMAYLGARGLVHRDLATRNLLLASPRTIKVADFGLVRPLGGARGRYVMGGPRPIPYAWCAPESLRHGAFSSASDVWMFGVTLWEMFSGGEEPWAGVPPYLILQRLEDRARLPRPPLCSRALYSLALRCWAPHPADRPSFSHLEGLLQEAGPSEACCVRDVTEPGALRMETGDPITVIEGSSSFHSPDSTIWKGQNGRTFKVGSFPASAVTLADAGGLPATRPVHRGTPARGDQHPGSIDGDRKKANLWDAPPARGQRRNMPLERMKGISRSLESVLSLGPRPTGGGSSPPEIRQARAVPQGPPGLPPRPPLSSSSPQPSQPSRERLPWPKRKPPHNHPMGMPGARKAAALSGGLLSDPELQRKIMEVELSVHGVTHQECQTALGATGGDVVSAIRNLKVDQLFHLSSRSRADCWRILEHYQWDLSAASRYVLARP
# BMP2K (human), sequence (Q9NSY1 whole entry, looked up): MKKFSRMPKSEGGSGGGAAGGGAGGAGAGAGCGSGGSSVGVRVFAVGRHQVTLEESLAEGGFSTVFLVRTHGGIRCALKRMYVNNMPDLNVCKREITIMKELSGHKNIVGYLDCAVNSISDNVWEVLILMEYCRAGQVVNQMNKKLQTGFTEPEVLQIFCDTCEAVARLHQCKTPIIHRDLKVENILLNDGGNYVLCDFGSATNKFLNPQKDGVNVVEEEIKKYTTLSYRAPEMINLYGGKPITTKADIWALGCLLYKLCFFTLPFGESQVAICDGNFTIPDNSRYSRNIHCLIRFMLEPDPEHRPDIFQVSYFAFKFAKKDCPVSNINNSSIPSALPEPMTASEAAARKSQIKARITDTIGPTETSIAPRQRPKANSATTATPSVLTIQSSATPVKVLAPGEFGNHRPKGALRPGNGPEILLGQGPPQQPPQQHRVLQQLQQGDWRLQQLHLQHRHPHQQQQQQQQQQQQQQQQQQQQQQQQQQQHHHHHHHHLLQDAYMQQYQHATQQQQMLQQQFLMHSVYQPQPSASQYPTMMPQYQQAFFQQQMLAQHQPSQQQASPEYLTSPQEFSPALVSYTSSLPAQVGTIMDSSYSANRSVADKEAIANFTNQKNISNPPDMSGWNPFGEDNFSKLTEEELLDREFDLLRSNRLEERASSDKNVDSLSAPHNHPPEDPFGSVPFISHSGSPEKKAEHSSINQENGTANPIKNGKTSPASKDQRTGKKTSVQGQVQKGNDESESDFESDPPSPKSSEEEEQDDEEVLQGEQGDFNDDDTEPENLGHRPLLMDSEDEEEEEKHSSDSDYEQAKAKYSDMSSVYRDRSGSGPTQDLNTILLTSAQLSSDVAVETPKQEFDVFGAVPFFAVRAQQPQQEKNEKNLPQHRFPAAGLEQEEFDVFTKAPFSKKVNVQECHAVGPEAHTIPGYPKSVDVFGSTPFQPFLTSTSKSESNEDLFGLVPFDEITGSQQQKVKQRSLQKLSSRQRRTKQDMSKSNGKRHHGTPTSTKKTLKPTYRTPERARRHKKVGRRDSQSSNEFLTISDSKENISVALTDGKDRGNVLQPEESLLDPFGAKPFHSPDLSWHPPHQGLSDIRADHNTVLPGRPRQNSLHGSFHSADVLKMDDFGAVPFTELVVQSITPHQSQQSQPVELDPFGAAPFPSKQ
# FGFR3 (human), P22607 [G697C], sequence (P22607 whole entry G697C, looked up): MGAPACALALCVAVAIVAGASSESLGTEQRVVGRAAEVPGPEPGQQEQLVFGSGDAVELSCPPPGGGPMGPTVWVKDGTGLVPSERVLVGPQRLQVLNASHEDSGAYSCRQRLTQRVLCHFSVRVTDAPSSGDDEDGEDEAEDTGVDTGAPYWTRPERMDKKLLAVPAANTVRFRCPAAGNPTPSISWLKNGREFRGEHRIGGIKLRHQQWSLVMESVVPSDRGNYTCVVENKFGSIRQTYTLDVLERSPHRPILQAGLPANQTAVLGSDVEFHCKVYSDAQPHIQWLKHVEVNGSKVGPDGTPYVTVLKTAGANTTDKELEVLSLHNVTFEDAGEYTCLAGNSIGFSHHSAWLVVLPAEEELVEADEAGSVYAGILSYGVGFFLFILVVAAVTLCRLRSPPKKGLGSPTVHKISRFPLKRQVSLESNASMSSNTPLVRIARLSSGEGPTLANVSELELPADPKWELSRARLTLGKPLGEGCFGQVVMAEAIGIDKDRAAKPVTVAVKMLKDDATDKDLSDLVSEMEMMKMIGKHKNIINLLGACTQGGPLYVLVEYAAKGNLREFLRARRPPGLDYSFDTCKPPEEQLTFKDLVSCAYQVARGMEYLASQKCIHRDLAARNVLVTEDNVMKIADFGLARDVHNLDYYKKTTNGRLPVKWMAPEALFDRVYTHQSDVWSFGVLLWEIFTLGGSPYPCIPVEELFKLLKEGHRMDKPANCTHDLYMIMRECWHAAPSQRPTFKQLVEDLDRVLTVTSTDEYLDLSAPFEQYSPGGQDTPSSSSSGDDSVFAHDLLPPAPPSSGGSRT
# PTK6 (human), sequence (Q13882 whole entry, looked up): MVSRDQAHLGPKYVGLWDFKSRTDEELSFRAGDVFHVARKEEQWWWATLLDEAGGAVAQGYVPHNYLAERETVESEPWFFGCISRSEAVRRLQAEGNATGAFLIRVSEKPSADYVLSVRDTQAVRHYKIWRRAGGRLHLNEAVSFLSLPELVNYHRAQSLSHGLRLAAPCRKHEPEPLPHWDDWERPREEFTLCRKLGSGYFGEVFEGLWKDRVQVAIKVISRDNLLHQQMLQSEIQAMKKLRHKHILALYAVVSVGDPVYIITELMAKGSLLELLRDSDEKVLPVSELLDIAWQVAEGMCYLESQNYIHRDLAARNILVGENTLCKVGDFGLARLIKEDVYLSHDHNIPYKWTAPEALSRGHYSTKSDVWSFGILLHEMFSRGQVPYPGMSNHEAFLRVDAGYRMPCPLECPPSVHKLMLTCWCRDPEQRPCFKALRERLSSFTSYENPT
compound,measurement,setting,value
COc1cc2ncnc(Oc3cccc(NC(=O)Nc4cc(C(C)(C)C(F)(F)F)on4)c3)c2cc1OC,Kd,TEK (human),130 nM
same,Kd,NLK (human),270 nM
same,Kd,RPS6KA6 KD2 (human),6400 nM
same,Kd,PAK2 (human),34000 nM
same,Kd,PRKD3 (human),6300 nM
same,Kd,TESK1 (human),38000 nM
same,Kd,CDC42BPG (human),4400 nM
same,Kd,RIPK1 (human),3200 nM
same,Kd,[1],3 nM
same,Kd,EPHB3 (human),3800 nM
same,Kd,TNNI3K (human),28 nM
same,Kd,HCK (human),13 nM
same,Kd,[2],3.2 nM
same,Kd,MKNK1 (human),2600 nM
same,Kd,CDK17 (human),630 nM
same,Kd,MAP4K2 (human),980 nM
same,Kd,MAPK14 (human),38 nM
same,Kd,CSF1R (human),8.6 nM
same,Kd,PIM2 (human),26000 nM
same,Kd,RIOK2 (human),36000 nM
same,Kd,PRKD1 (human),7300 nM
same,Kd,MAP3K9 (human),1500 nM
same,Kd,TNK1 (human),150 nM
same,Kd,PIK3CG (human),30000 nM
same,Kd,ABL1 (human),2.8 nM
same,Kd,CDKL2 (human),43 nM
same,Kd,SRMS (human),3000 nM
same,Kd,ERN1 (human),19000 nM
same,Kd,STK10 (human),1.7 nM
same,Kd,EPHA3 (human),36 nM
same,Kd,PTK6 (human),200 nM
same,Kd,ALK (human),34000 nM
same,Kd,STK25 (human),19000 nM
same,Kd,FLT3 (human),4.2 nM
same,Kd,CDKL5 (human),92 nM
same,Kd,DYRK1A (human),35000 nM
same,Kd,BMP2K (human),33000 nM
same,Kd,AKT2 (human),8400 nM
same,Kd,[3],3100 nM
same,Kd,BMX (human),820 nM
same,Kd,[4],37000 nM

# Source: the kinase profiling compilation of Christmann-Franck et al. (2016)
